Experimental findings from patent US12319672B2, “Alpha-D-galactopyranoside derivatives” (Idorsia Pharmaceuticals Ltd, priority 2019, dated 2025) are described below.

The target of one assay is human Gal-1 (hGal-1). Put plainly: Competitive binding assay: binding of biotinylated hGal-1 to microplate-adsorbed asialofetuin (ASF). The conditions noted are these: Activities on hGal-1; mean values of several measurements. Summed up:
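For hGal-1, a variant with all six cysteines replaced by serines is preferred. Either galectin, biotinylated at 300-1000 ng/mL, competes with compound for microplate-bound ASF over 3 h at 4° C; peroxidase/ABTS detection gives IC50, averaged.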

The next assay concerns the target human Gal-3 (hGal-3) (Homo sapiens (Human), UniProt P17931). Put plainly: Competitive binding assay: binding of biotinylated hGal-3 to microplate-adsorbed asialofetuin (ASF). The conditions noted are these: Activity on hGal-3; mean values of several measurements. Summed up: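 Compounds in DMSO dilution series competed with 300-1000 ng/mL biotinylated hGal-3 for asialofetuin adsorbed on the plate (3 h, 4° C). Streptavidin-peroxidase at 80 ng/mL (1 h, 4° C) with ABTS gave a spectrophotometric read-out, and IC50 was reported as the mean of repeat runs.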

human Gal-3 (hGal-3), sequence (P17931 whole entry): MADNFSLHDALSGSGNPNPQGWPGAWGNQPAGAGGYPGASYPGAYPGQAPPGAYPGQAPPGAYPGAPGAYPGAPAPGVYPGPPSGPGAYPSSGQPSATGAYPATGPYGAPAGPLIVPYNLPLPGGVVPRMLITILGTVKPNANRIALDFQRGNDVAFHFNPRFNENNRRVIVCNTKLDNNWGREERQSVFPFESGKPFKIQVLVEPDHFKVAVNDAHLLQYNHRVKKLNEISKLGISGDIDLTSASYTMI
human Gal-1 (hGal-1), sequence (P09382 2-135 limits assumed): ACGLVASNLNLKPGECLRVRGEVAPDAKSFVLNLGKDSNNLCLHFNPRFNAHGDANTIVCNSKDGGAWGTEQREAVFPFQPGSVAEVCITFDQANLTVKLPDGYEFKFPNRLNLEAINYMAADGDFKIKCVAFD

As usually defined, the IC50 is the concentration needed to halve the response being measured. `COc1ccc(C2=NO[C@H](C[C@H]3O[C@H](CO)[C@H](O)[C@H](n4cc(-c5cc(F)c(F)c(F)c5)nn4)[C@H]3O)C2)cc1` [Ex 1.03]: the IC50 is 5450 nM at human Gal-1 (hGal-1) and 310 nM at human Gal-3 (hGal-3).
As to `COc1ccc(C2=NO[C@@H](C[C@H]3O[C@H](CO)[C@H](O)[C@H](n4cc(-c5cc(F)c(F)c(F)c5)nn4)[C@H]3O)C2)cc1` [Ex 1.04], the half-maximal inhibitory concentration (IC50) on human Gal-1 (hGal-1) is over 100000 nM; at human Gal-3 (hGal-3), 580 nM.
Regarding `OC[C@H]1O[C@H](CC2CC(C3CCCCC3)=NO2)[C@H](O)[C@@H](n2cc(-c3cc(F)c(F)c(F)c3)nn2)[C@H]1O` (stereo partly drawn) [Ex 1.05], the IC50 on human Gal-1 (hGal-1) came to 7180 nM; on human Gal-3 (hGal-3), 480 nM.
On to `OC[C@H]1O[C@H](C[C@H]2CC(C3CCCCC3)=NO2)[C@H](O)[C@@H](n2cc(-c3cc(F)c(F)c(F)c3)nn2)[C@H]1O` [Ex 1.06], for which the concentration for half-maximal inhibition (IC50) on human Gal-1 (hGal-1) worked out at 22200 nM; at human Gal-3 (hGal-3), 1800 nM.
In the case of `OC[C@H]1O[C@H](C[C@@H]2CC(C3CCCCC3)=NO2)[C@H](O)[C@@H](n2cc(-c3cc(F)c(F)c(F)c3)nn2)[C@H]1O` [Ex 1.07], the IC50 at human Gal-1 (hGal-1) was found to be 4900 nM; at human Gal-3 (hGal-3), 520 nM.
For the compound `CO[C@@H]1[C@@H](n2cc(-c3cc(F)c(F)c(F)c3)nn2)[C@@H](O)[C@@H](CO)O[C@@H]1CC1CC(C2CCCCC2)=NO1` (stereo partly drawn) [Ex 1.08], the IC50 at human Gal-1 (hGal-1) was found to be 8740 nM; on human Gal-3 (hGal-3), 1080 nM.
For `CO[C@@H]1[C@@H](n2cc(-c3cc(F)c(F)c(F)c3)nn2)[C@@H](O)[C@@H](CO)O[C@@H]1C[C@H]1CC(C2CCCCC2)=NO1` [Ex 1.09], the IC50 is 27500 nM on human Gal-1 (hGal-1) and 2150 nM on human Gal-3 (hGal-3).
The corresponding values for `CO[C@@H]1[C@@H](n2cc(-c3cc(F)c(F)c(F)c3)nn2)[C@@H](O)[C@@H](CO)O[C@@H]1C[C@@H]1CC(C2CCCCC2)=NO1` [Ex 1.10] are 5390 nM and 560 nM.
Turning to `OC[C@H]1O[C@H](CC2CC(C3CCCC3)=NO2)[C@H](O)[C@@H](n2cc(-c3cc(F)c(F)c(F)c3)nn2)[C@H]1O` (stereo partly drawn) [Ex 1.11], the concentration for half-maximal inhibition (IC50) at human Gal-1 (hGal-1) turned out to be 5610 nM; on human Gal-3 (hGal-3), 510 nM.
With `CO[C@@H]1[C@@H](n2cc(-c3cc(F)c(F)c(F)c3)nn2)[C@@H](O)[C@@H](CO)O[C@@H]1CC1CC(C2CCCC2)=NO1` (stereo partly drawn) [Ex 1.12], the half-inhibitory concentration (IC50) on human Gal-1 (hGal-1) came to 3550 nM; on human Gal-3 (hGal-3), 670 nM.
`COc1ccc(C2=NOC(C[C@H]3O[C@H](CO)[C@H](O)[C@H](n4cc(-c5cc(F)c(F)c(F)c5)nn4)[C@H]3O)C2)c(Cl)c1` (stereo partly drawn) [Ex 1.13]: the IC50 is 6340 nM on human Gal-1 (hGal-1) and 1110 nM on human Gal-3 (hGal-3).
Take `OC[C@H]1O[C@H](CC2CC(c3cncnc3)=NO2)[C@H](O)[C@@H](n2cc(-c3cc(F)c(F)c(F)c3)nn2)[C@H]1O` (stereo partly drawn) [Ex 1.14]: the values for the half-inhibitory concentration (IC50) at human Gal-1 (hGal-1) and on human Gal-3 (hGal-3) were 2270 nM and 680 nM, respectively.
For `CO[C@@H]1[C@@H](n2cc(-c3cc(F)c(F)c(F)c3)nn2)[C@@H](O)[C@@H](CO)O[C@@H]1CC1CC(c2cncnc2)=NO1` (stereo partly drawn) [Ex 1.15], in that order: 3200 nM and 650 nM.
`OC[C@H]1O[C@H](CC2CC(c3ccncc3)=NO2)[C@H](O)[C@@H](n2cc(-c3cc(F)c(F)c(F)c3)nn2)[C@H]1O` (stereo partly drawn) [Ex 1.16]: the half-inhibitory concentration (IC50) on human Gal-1 (hGal-1) was 6620 nM; on human Gal-3 (hGal-3) it was 430 nM.
For `CO[C@@H]1[C@@H](n2cc(-c3cc(F)c(F)c(F)c3)nn2)[C@@H](O)[C@@H](CO)O[C@@H]1CC1CC(c2ccncc2)=NO1` (stereo partly drawn) [Ex 1.17], in that order: 8790 nM and 700 nM.
In the case of `OC[C@H]1O[C@H](CC2CC(c3cccc(Cl)c3)=NO2)[C@H](O)[C@@H](n2cc(-c3cc(F)c(F)c(F)c3)nn2)[C@H]1O` (stereo partly drawn) [Ex 1.18], the IC50 stood at 14100 nM on human Gal-1 (hGal-1) and 970 nM at human Gal-3 (hGal-3).
Take `CO[C@@H]1[C@@H](n2cc(-c3cc(F)c(F)c(F)c3)nn2)[C@@H](O)[C@@H](CO)O[C@@H]1CC1CC(C2CCOCC2)=NO1` (stereo partly drawn) [Ex 1.19]: the IC50 was found to be 5580 nM on human Gal-1 (hGal-1) and 530 nM on human Gal-3 (hGal-3).
For `CO[C@@H]1[C@@H](n2cc(-c3cc(F)c(F)c(F)c3)nn2)[C@@H](O)[C@@H](CO)O[C@@H]1CC1CC(c2ccc3[nH]c(=O)oc3c2)=NO1` (stereo partly drawn) [Ex 1.20], in that order: 4270 nM and 240 nM.
